Tested on: powdery mildew of wheat (Erysiphe graminis forma specialis tritici)
Assay: Activity against powdery mildew of wheat (protective spray on wheat seedlings, visual % infection of leaf area after 7 days)
Assay type: in vivo
Conditions: single active ingredient, wheat seedlings cv. Frühgold
Description: The active ingredients, separately or together, are formulated as a 10% emulsion in a mixture of 70% by weight of cyclohexanone, 20% by weight of Nekanil® LN (Lutensol® AP6, wetting agent having emulsifying and dispersing action, based on ethoxylated alkylphenols) and 10% by weight of Emulphor® EL (Emulan® EL, emulsifier based on ethoxylated fatty alcohols) and diluted with water to give the desired concentration.
Leaves of wheat seedlings cv. “Frühgold” which had been grown in pots were sprayed to runoff point with an aqueous preparation of active ingredient which had been prepared from a stock solution comprising 10% of active ingredient, 63% of cyclohexanone and 27% of emulsifier and, 24 hours after the spray coating had dried on, dusted with spores of powdery mildew of wheat (Erysiphe graminis forma specialis tritici). The test plants were subsequently placed in a greenhouse at from […] and a relative atmospheric humidity of 60 to 90%. After 7 days, the extent of mildew development was determined visually as % infection of the total leaf area.
Evaluation is carried out by determining the infected leaf areas in percent. These percentages are converted into efficacies. The expected efficacies of the mixtures of the active ingredients are determined using Colby's formula [R. S. Colby, Weeds 15, 20-22 (1967)] and compared with the observed efficacies. […]
The efficacy (E) is calculated as follows using Abbot's formula: […]
α corresponds to the fungal infection of the treated plants in % and
β corresponds to the fungal infection of the untreated (control) plants in %
An efficacy of 0 means that the infection level of the treated plants corresponds to that of the untreated control plants; an efficacy of 100 means that the treated plants were not infected.

| Structure (SMILES) | Efficacy in % of the untreated control (0.125 ppm in the spray liquor) | Efficacy in % of the untreated control (0.5 ppm in the spray liquor) |
| --- | --- | --- |
| COC(=O)N(OC)c1ccccc1COc1ccn(-c2ccc(Cl)cc2)n1 [Compound I.32] | 0% | 10% |
| CNC(=O)/C(=N\OC)c1ccccc1COc1cc(C)ccc1C [Compound III] | 20% |  |
| CO/N=C(\C(=O)OC)c1ccccc1COc1ccccc1C [Compound II] | 0% |  |
